# In publication PMC7242566, “The Three Lipocalins of Egg-White: Only Ex-FABP Inhibits Siderophore-Dependent Iron Sequestration by Salmonella Enteritidis” (Frontiers in Microbiology, 2020):
# Values joined by “and” are separate entries in the source; they are usually repeats but may differ in a detail not shown here. Identical values can stand only once. Like-named read-outs stand apart in the source and are kept apart here.
# Legend:
# [1] = target: Cal-γ; test: Isothermal titration calorimetry, siderophore binding to Cal-γ; design: species or system chicken; conditions: ITC, TBS pH 7.4, 30°C, 5 μM lipocalin
# Description: (§1) Experiments were carried out with a GE Healthcare Microcal VP-ITC microcalorimeter according to the manufacturer’s guidelines (Operating Instructions 28-9639-79 AA). The device consisted of a motorized injection syringe, in which the ligand was loaded, with two adiabatic cells set at 30 °C. The left cell was filled with the reference (TBS with 1.3% DMSO), whereas the right cell was filled with 5 μM lipocalin protein dissolved in the same buffer. […] Samples were degassed and pre-equilibrated at the desired temperature using a GE MicroCal ThermoVac degassing station before loading into the syringe, sample cell and reference cell.
# (§2) FIGURE 2 Interactions between lipocalins and SE siderophores. […] Data for LCN2, Fe-Ent are shown in the Supplementary Figure S2.
# [2] = target: T1, Ex-FABP (Gallus gallus, UniProt P21760); test: biochemical; format: binding, chicken
# T1 construct: made in house; host or cells: E. coli K-12 BW25113 ΔentB::kan (JW0587) (λDE3), pET21a, periplasmic secretion
# Description: as §1
# [3] = target: α-1-ovoglycoprotein; test: Isothermal titration calorimetry, siderophore binding to α-1-ovoglycoprotein; design: species or system chicken; conditions: ITC, TBS pH 7.4, 30°C, 5 μM recombinant non-glycosylated lipocalin
# Description: as §1, §2
# [4] = target: T1, Ex-FABP; conditions: TQF, ref Correnti et al., 2011, cited from earlier work; for Kd: pH 7.4
# [5] = target: T2, LCN2 (Homo sapiens, UniProt P80188); test: Isothermal titration calorimetry, siderophore binding to LCN2; conditions: ITC; for Kd / n (binding stoichiometry) / ΔH (enthalpy) / ΔS (entropy): TBS pH 7.4, 30°C; for Kd: 5 μM lipocalin
# T2 construct: made in house; host or cells: E. coli K-12 BW25113 ΔentB::kan (JW0587) (λDE3), pET21a
# Description: as §1
# [6] = design: method as in Chart and Rowe, 1993; conditions: ref Chart and Rowe, 1993; cited from earlier work
# [7] = target: T2, LCN2; conditions: cited from earlier work; for Kd: TQF
# [8] = target: T2, LCN2; design: method as in Li et al., 2015; conditions: ITC, earlier report; ref Li et al., 2015; cited from earlier work
# T2 sequence (P80188 with tags, fused parts or gaps): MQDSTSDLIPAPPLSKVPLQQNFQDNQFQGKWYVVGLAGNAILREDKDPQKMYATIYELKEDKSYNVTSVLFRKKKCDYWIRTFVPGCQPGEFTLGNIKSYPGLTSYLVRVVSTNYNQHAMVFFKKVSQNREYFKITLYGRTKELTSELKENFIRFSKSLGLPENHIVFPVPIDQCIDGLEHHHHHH
# T1 sequence (P21760 21-178): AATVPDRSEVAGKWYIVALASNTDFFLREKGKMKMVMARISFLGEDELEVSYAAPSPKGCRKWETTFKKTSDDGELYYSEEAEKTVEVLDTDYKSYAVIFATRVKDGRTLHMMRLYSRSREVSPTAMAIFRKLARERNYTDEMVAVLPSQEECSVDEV
compound,measurement,setting,value
salmochelin [apo-Sal (or DGE)],Kd,[1],Under threshold
same,Kd,[1]; listed as apoDGE,neither Cal-γ nor α-1-ovoglycoprotein bind
same,Kd,[1]; listed as salmochelin,No interactions could be measured
same,Kd,"[2]; ITC, TBS pH 7.4, 30°C, 5 μM lipocalin",No interactions could be measured
same,Kd,"[2]; ITC, TBS pH 7.4, 30°C, 5 μM lipocalin, listed as apoDGE",failed to interact
same,Kd,[3],Under threshold
same,Kd,[3]; listed as apoDGE,neither Cal-γ nor α-1-ovoglycoprotein bind
same,Kd,[3]; listed as salmochelin,No interactions could be measured
same,Kd,[4],Under threshold
same,Kd,[5],No binding was observed
"O=C(N[C@H]1COC(=O)[C@@H](NC(=O)c2cccc(O)c2O)COC(=O)[C@@H](NC(=O)c2cccc(O)c2O)COC1=O)c1cccc(O)c1O [apo-Ent, enterobactin]",Kd,[1],Under threshold
same,Kd,[1]; listed as apoEnt,neither Cal-γ nor α-1-ovoglycoprotein bind
same,Kd,[1]; listed as enterobactin,No interactions could be measured
same,Kd,[2],86.2 ± 14.6 nM
same,n (binding stoichiometry),"[2]; ITC, TBS pH 7.4, 30°C",0.617
same,ΔH (enthalpy),"[2]; ITC, TBS pH 7.4, 30°C",-28.3 kcal/mol
same,ΔS (entropy),"[2]; ITC, TBS pH 7.4, 30°C","−60.9 cal/mol, K"
same,binding/affinity constant for Fe^3+ (ferric ion),[6],10^52 M^−1
same,Kd,[3],Under threshold
same,Kd,[3]; listed as apoEnt,neither Cal-γ nor α-1-ovoglycoprotein bind
same,Kd,[3]; listed as enterobactin,No interactions could be measured
same,Kd,"[7]; ref Abergel et al., 2006",3.57 nM
same,Kd,[4]; read-out: Kd,0.5 ± 0.15 nM
same,n (binding stoichiometry),[5],0.872
same,ΔH (enthalpy),[5],-27.8 kcal/mol
same,ΔS (entropy),[5],"−58.9 cal/mol, K"
same,Kd,[5]; Kd,58 nM and 58.4 nM
O=C(N[C@H]1COC(=O)[C@@H](NC(=O)c2cccc([O-])c2[O-])COC(=O)[C@@H](NC(=O)c2cccc([O-])c2[O-])COC1=O)c1cccc([O-])c1[O-].[Fe+3] [Fe^3+-Ent],fold higher affinity for Fe^3+-Ent than apoEnt,[2]; ITC,16 fold
same,n (binding stoichiometry),"[2]; ITC, TBS pH 7.4, 30°C",0.672
same,ΔH (enthalpy),"[2]; ITC, TBS pH 7.4, 30°C",-19.4 kcal/mol
same,ΔS (entropy),"[2]; ITC, TBS pH 7.4, 30°C","−26.1 cal/mol, K"
same,Kd,"[2]; ITC, TBS pH 7.4, 30°C, 5 μM lipocalin, read-out: Kd",5.3 ± 3.8 nM
same,Kd,"[7]; ref Fischbach et al., 2006",0.43 nM
same,Kd,"[7]; ref Goetz et al., 2002",0.41 nM
same,fold higher affinity for Fe^3+-Ent than apoEnt,"[7]; ref Abergel et al., 2006",8.7 fold
same,Kd,[8],240 nM
same,Kd,[4]; read-out: Kd,0.22 ± 0.06 nM
same,fold higher affinity for Fe^3+-Ent than apoEnt,[4],2.3 fold
same,fold higher affinity for Fe^3+-Ent than apoEnt,[5],4.9 fold
same,n (binding stoichiometry),[5],0.863
same,ΔH (enthalpy),[5],-26.2 kcal/mol
same,ΔS (entropy),[5],"−50.2 cal/mol, K"
same,Kd,[5]; read-out: Kd,11.8 ± 8.8 nM
